Assay results reported in PubChem BioAssay (NCI).
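Cells were grown in 96-well plates and exposed to each compound for 48 hours at five concentrations; endpoints were interpolated linearly between bracketing concentrations, or set to the highest concentration if not reached. At the GI50, growth is halved. TGI marks complete inhibition of growth.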

What was measured:
Experiment in all cases: NCI anticancer screen, dose series, 48 h
CCRF-CEM leukemia = tested on: CCRF-CEM leukemia
SNB-19 CNS = tested on: SNB-19 CNS
A549 NSCLC = tested on: A549 NSCLC
SF-539 CNS = tested on: SF-539 CNS
LOX IMVI melanoma = tested on: LOX IMVI melanoma
SK-MEL-28 melanoma = tested on: SK-MEL-28 melanoma
TK-10 renal = tested on: TK-10 renal
HS 578T breast = tested on: HS 578T breast
HCT-15 colon = tested on: HCT-15 colon
RXF 393 renal = tested on: RXF 393 renal
M14 melanoma = tested on: M14 melanoma
SK-MEL-5 melanoma = tested on: SK-MEL-5 melanoma
RPMI-8226 leukemia = tested on: RPMI-8226 leukemia
SF-268 CNS = tested on: SF-268 CNS
HOP-62 NSCLC = tested on: HOP-62 NSCLC
OVCAR-5 ovarian = tested on: OVCAR-5 ovarian
DU-145 prostate = tested on: DU-145 prostate
T-47D breast = tested on: T-47D breast
NCI-H23 lung = tested on: NCI-H23 lung
NCI-H226 lung = tested on: NCI-H226 lung
SF-295 CNS = tested on: SF-295 CNS
MDA-MB-231 breast = tested on: MDA-MB-231 breast
UACC-62 melanoma = tested on: UACC-62 melanoma
NCI/ADR-RES ovarian = tested on: NCI/ADR-RES ovarian
UACC-257 melanoma = tested on: UACC-257 melanoma
NCI-H522 lung = tested on: NCI-H522 lung
PC-3 prostate = tested on: PC-3 prostate
OVCAR-8 ovarian = tested on: OVCAR-8 ovarian
MDA-MB-435 = tested on: MDA-MB-435
EKVX NSCLC = tested on: EKVX NSCLC
BT-549 breast = tested on: BT-549 breast
HCC-2998 colon = tested on: HCC-2998 colon
KM12 colon = tested on: KM12 colon
MALME-3M melanoma = tested on: MALME-3M melanoma
SN12C renal = tested on: SN12C renal
MCF7 breast = tested on: MCF7 breast
OVCAR-4 ovarian = tested on: OVCAR-4 ovarian
HT29 colon = tested on: HT29 colon
ACHN renal = tested on: ACHN renal
SK-OV-3 ovarian = tested on: SK-OV-3 ovarian
SW-620 colon = tested on: SW-620 colon
SK-MEL-2 melanoma = tested on: SK-MEL-2 melanoma
786-0 renal = tested on: 786-0 renal
MOLT-4 leukemia = tested on: MOLT-4 leukemia
CAKI-1 renal = tested on: CAKI-1 renal
IGROV1 ovarian = tested on: IGROV1 ovarian
HOP-92 NSCLC = tested on: HOP-92 NSCLC
HCT-116 colon = tested on: HCT-116 colon
HL-60(TB) leukemia = tested on: HL-60(TB) leukemia
OVCAR-3 ovarian = tested on: OVCAR-3 ovarian
UO-31 renal = tested on: UO-31 renal
U251 CNS = tested on: U251 CNS
SR leukemia = tested on: SR leukemia
A498 renal = tested on: A498 renal
COLO 205 colon = tested on: COLO 205 colon
K-562 leukemia = tested on: K-562 leukemia
NCI-H460 lung = tested on: NCI-H460 lung
SNB-75 CNS = tested on: SNB-75 CNS

CNC(=O)c1cc2nc3ccccc3c(=O)n2c2ccccc12
TGI (CCRF-CEM leukemia): > 10 µM
TGI (SNB-19 CNS): > 10 µM
TGI (A549 NSCLC): > 10 µM
TGI (SF-539 CNS): > 10 µM
TGI (LOX IMVI melanoma): > 10 µM
TGI (SK-MEL-28 melanoma): > 10 µM
TGI (TK-10 renal): > 10 µM
TGI (HS 578T breast): > 10 µM
TGI (HCT-15 colon): > 10 µM
TGI (RXF 393 renal): > 10 µM
TGI (M14 melanoma): > 10 µM
TGI (SK-MEL-5 melanoma): > 10 µM
TGI (RPMI-8226 leukemia): > 10 µM
TGI (SF-268 CNS): > 10 µM
TGI (HOP-62 NSCLC): > 10 µM
TGI (OVCAR-5 ovarian): > 10 µM
TGI (DU-145 prostate): > 10 µM
TGI (T-47D breast): > 10 µM
TGI (NCI-H23 lung): > 10 µM
TGI (NCI-H226 lung): > 10 µM
TGI (SF-295 CNS): > 10 µM
TGI (MDA-MB-231 breast): > 10 µM
TGI (UACC-62 melanoma): > 10 µM
TGI (NCI/ADR-RES ovarian): > 10 µM
TGI (UACC-257 melanoma): > 10 µM
TGI (NCI-H522 lung): > 10 µM
TGI (PC-3 prostate): > 10 µM
TGI (OVCAR-8 ovarian): > 10 µM
TGI (MDA-MB-435): > 10 µM
TGI (EKVX NSCLC): > 10 µM
TGI (BT-549 breast): > 10 µM
TGI (HCC-2998 colon): > 10 µM
TGI (KM12 colon): > 10 µM
TGI (MALME-3M melanoma): > 10 µM
TGI (SN12C renal): > 10 µM
TGI (MCF7 breast): > 10 µM
TGI (OVCAR-4 ovarian): > 10 µM
TGI (HT29 colon): > 10 µM
TGI (ACHN renal): > 10 µM
TGI (SK-OV-3 ovarian): > 10 µM
TGI (SW-620 colon): > 10 µM
TGI (SK-MEL-2 melanoma): > 10 µM
TGI (786-0 renal): > 10 µM
TGI (MOLT-4 leukemia): > 10 µM
TGI (CAKI-1 renal): > 10 µM
TGI (IGROV1 ovarian): > 10 µM
TGI (HOP-92 NSCLC): > 10 µM
TGI (HCT-116 colon): > 10 µM
TGI (HL-60(TB) leukemia): > 10 µM
TGI (OVCAR-3 ovarian): > 10 µM
TGI (UO-31 renal): > 10 µM
TGI (U251 CNS): > 10 µM
TGI (SR leukemia): > 10 µM
TGI (A498 renal): > 10 µM
TGI (COLO 205 colon): > 10 µM
TGI (K-562 leukemia): > 10 µM

COc1cc(-c2nn(-c3cccc(NC(=O)NCCNS(=O)(=O)c4ccc(Cl)cc4)c3)cc2-c2ccncc2)ccc1Cl
GI50 (CCRF-CEM leukemia): 0.419 µM
TGI (CCRF-CEM leukemia): > 100 µM
GI50 (SNB-19 CNS): 1.16 µM
TGI (SNB-19 CNS): > 100 µM
GI50 (A549 NSCLC): 1.93 µM
TGI (A549 NSCLC): 37.4 µM
GI50 (SF-539 CNS): 0.48 µM
TGI (SF-539 CNS): 2.11 µM
GI50 (LOX IMVI melanoma): 0.559 µM
TGI (LOX IMVI melanoma): 2.46 µM
GI50 (SK-MEL-28 melanoma): 1.48 µM
TGI (SK-MEL-28 melanoma): 13.2 µM
GI50 (TK-10 renal): 2.81 µM
TGI (TK-10 renal): 9.26 µM
GI50 (HS 578T breast): 0.351 µM
TGI (HS 578T breast): 5.14 µM
GI50 (HCT-15 colon): 2.45 µM
TGI (HCT-15 colon): 8.55 µM
GI50 (RXF 393 renal): 0.307 µM
TGI (RXF 393 renal): 2.18 µM
GI50 (M14 melanoma): 0.423 µM
TGI (M14 melanoma): 2.42 µM
GI50 (SK-MEL-5 melanoma): 0.493 µM
TGI (SK-MEL-5 melanoma): 1.83 µM
GI50 (SF-268 CNS): 0.792 µM
TGI (SF-268 CNS): 4.39 µM
GI50 (HOP-62 NSCLC): 1.08 µM
TGI (HOP-62 NSCLC): 33 µM
GI50 (OVCAR-5 ovarian): 2.82 µM
TGI (OVCAR-5 ovarian): > 100 µM
GI50 (DU-145 prostate): 0.956 µM
TGI (DU-145 prostate): > 100 µM
GI50 (T-47D breast): 0.646 µM
TGI (T-47D breast): 18.1 µM
GI50 (NCI-H23 lung): 1.21 µM
TGI (NCI-H23 lung): 8.79 µM
GI50 (NCI-H226 lung): 1.45 µM
TGI (NCI-H226 lung): 14.3 µM
GI50 (SF-295 CNS): 0.513 µM
TGI (SF-295 CNS): 2.09 µM
GI50 (MDA-MB-231 breast): 1.51 µM
TGI (MDA-MB-231 breast): 4.38 µM
GI50 (UACC-62 melanoma): 0.499 µM
TGI (UACC-62 melanoma): 2.39 µM
GI50 (NCI/ADR-RES ovarian): 22.7 µM
TGI (NCI/ADR-RES ovarian): > 100 µM
GI50 (UACC-257 melanoma): 0.541 µM
TGI (UACC-257 melanoma): 3.34 µM
GI50 (NCI-H522 lung): 0.311 µM
TGI (NCI-H522 lung): 1.35 µM
GI50 (PC-3 prostate): 0.49 µM
TGI (PC-3 prostate): 9.55 µM
GI50 (OVCAR-8 ovarian): 1.71 µM
TGI (OVCAR-8 ovarian): 8.48 µM
GI50 (MDA-MB-435): 0.207 µM
TGI (MDA-MB-435): 0.515 µM
GI50 (EKVX NSCLC): 2.15 µM
TGI (EKVX NSCLC): > 100 µM
GI50 (BT-549 breast): 1.23 µM
TGI (BT-549 breast): 5.14 µM
GI50 (HCC-2998 colon): 1.69 µM
TGI (HCC-2998 colon): 5.09 µM
GI50 (KM12 colon): 0.456 µM
TGI (KM12 colon): 2.41 µM
GI50 (MALME-3M melanoma): 0.588 µM
TGI (MALME-3M melanoma): 2.87 µM
GI50 (SN12C renal): 1.19 µM
TGI (SN12C renal): 13.2 µM
GI50 (MCF7 breast): 0.363 µM
TGI (MCF7 breast): > 100 µM
GI50 (OVCAR-4 ovarian): 1.03 µM
TGI (OVCAR-4 ovarian): 92 µM
GI50 (HT29 colon): 0.37 µM
TGI (HT29 colon): 1.51 µM
GI50 (ACHN renal): 2.69 µM
TGI (ACHN renal): 11.8 µM
GI50 (SK-OV-3 ovarian): 1.85 µM
TGI (SK-OV-3 ovarian): 17.5 µM
GI50 (SW-620 colon): 0.524 µM
TGI (SW-620 colon): 30.3 µM
GI50 (SK-MEL-2 melanoma): 0.629 µM
TGI (SK-MEL-2 melanoma): 2.81 µM
GI50 (786-0 renal): 1.5 µM
TGI (786-0 renal): 5.78 µM
GI50 (MOLT-4 leukemia): 1.03 µM
TGI (MOLT-4 leukemia): > 100 µM
GI50 (IGROV1 ovarian): 1.18 µM
TGI (IGROV1 ovarian): > 100 µM
GI50 (HOP-92 NSCLC): 0.886 µM
TGI (HOP-92 NSCLC): 5.45 µM
GI50 (HCT-116 colon): 0.381 µM
TGI (HCT-116 colon): 2.47 µM
GI50 (HL-60(TB) leukemia): 0.466 µM
TGI (HL-60(TB) leukemia): > 100 µM
GI50 (OVCAR-3 ovarian): 0.371 µM
TGI (OVCAR-3 ovarian): 1.55 µM
GI50 (NCI-H460 lung): 0.413 µM
TGI (NCI-H460 lung): 3.69 µM
GI50 (UO-31 renal): 2.45 µM
TGI (UO-31 renal): > 100 µM
GI50 (U251 CNS): 0.494 µM
TGI (U251 CNS): 2.09 µM
GI50 (SR leukemia): 0.466 µM
TGI (SR leukemia): 3.53 µM
GI50 (A498 renal): 0.578 µM
TGI (A498 renal): 4.31 µM
GI50 (SNB-75 CNS): 0.353 µM
TGI (SNB-75 CNS): > 100 µM
